# Results taken from patent US20100125059A1, “1-BIARYLAZETIDINONE DERIVATIVE” (Teijin Pharma Limited, priority 2007, published 2010).
# Read-outs that look alike come from different tables or passages of the source.
# How the values were obtained:
# [1] = tested on: Caco-2 cells; assay: Cholesterol absorption inhibition assay (in vitro), [14C] cholesterol mixed micelles; assay type: cell-based; conditions: Homo sapiens, concentration of 12.5 μM, 24 hours, read-out: cholesterol absorption inhibitory activity
# Method in brief: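 Caco-2 cells cultured 2 weeks, then incubated 24 h at 37° C with [14C] cholesterol mixed micelles (oleate, phosphatidylcholine, taurocholate) plus compound at 0.5 to 25 μM final. Lipids extracted, cholesteryl ester separated by TLC and quantified by imaging plate; inhibition as background-corrected percentage of solvent control.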
# [2] = tested on: hamsters fed a high cholesterol diet; assay: Measurement of lipid lowering effect in hamsters fed a high cholesterol diet; assay type: in vivo, Male Golden Syrian hamsters; conditions: Mesocricetus auratus, po, 168 h, gavage once daily, 7 days
# Method in brief: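 Male Golden Syrian hamsters (6/group) on 0.5% cholesterol diet, dosed by gavage once daily in corn oil at 0.01 to 10 mg/kg; serum and liver sampled 4 h after last dose. TC, TG and LDL-C measured enzymatically; effects expressed as % suppression versus control and normal-diet groups.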
# [3] = either alone or in the presence of a statin; cited from earlier work
# [4] = read-out: serum LDL-C lowering effect (suppression rate of an increase in serum LDL-C concentration)
# [5] = read-out: liver TC lowering effect (suppression rate of an increase in liver TC concentration)
# [6] = read-out: serum TC lowering effect (suppression rate of an increase in serum TC concentration)
structure (smiles),measurement,setting,value
"O=C1[C@H](SC[C@H](O)c2ccc(Cl)cc2)[C@@H](c2ccc(O)cc2)N1c1ccc(-c2cncc(C(F)(F)F)c2)cc1 [Example 86, (3R,4R)-3-[(2R)-2-(4-chlorophenyl)-2-hydroxyethylthio]-4-(4-hydroxyphenyl)-1-[4-(5-trifluoromethylpyridin-3-yl)phenyl]azetidin-2-one]",inhibition at 12.5 µM,[1],≥ 60%
same,inhibition in vivo at 0.01 mg/kg,[2]; [4],≥ 30%
"O=C1[C@H](SC[C@H](O)c2ccc(Cl)cc2)[C@@H](c2ccc(O)cc2)N1c1ccc(-c2cncc(Cl)c2)cc1 [Example 87, (3R,4R)-3-[(2R)-2-(4-chlorophenyl)-2-hydroxyethylthio]-1-[4-(5-chloropyridin-3-yl)phenyl]-4-(4-hydroxyphenyl)azetidin-2-one]",inhibition at 12.5 µM,[1],≥ 60%
same,inhibition in vivo at 0.01 mg/kg,[2]; [5],≥ 30%
same,inhibition in vivo at 0.01 mg/kg,[2]; [4],≥ 30%
same,inhibition in vivo at 0.01 mg/kg,[2]; [6],≥ 30%
"O=C1[C@H](SC[C@H](O)c2ccc(F)cc2Cl)[C@@H](c2ccc(O)cc2)N1c1ccc(-c2cccnc2)cc1 [Example 90, (3R,4R)-3-[(2R)-2-(2-chloro-4-fluorophenyl)-2-hydroxyethylthio]-4-(4-hydroxyphenyl)-1-[4-(pyridin-3-yl)phenyl]azetidin-2-one]",inhibition at 12.5 µM,[1],≥ 60%
same,inhibition in vivo at 0.1 mg/kg,[2]; [4],≥ 50%
same,inhibition in vivo at 0.1 mg/kg,[2]; [6],≥ 50%
"Cc1ccc(-c2ccc(N3C(=O)[C@H](SC[C@H](O)c4ccc(Cl)cc4)[C@H]3c3ccc(O)cc3)cc2)cn1 [Example 91, (3R,4R)-3-[(2R)-2-(4-chlorophenyl)-2-hydroxyethylthio]-4-(4-hydroxyphenyl)-1-[4-(6-methylpyridin-3-yl)phenyl]azetidin-2-one]",inhibition at 12.5 µM,[1],≥ 60%
same,inhibition in vivo at 0.01 mg/kg,[2]; [6],≥ 30%
"O=C1[C@H](SC[C@H](O)c2ccc(Cl)cc2)[C@@H](c2ccc(O)cc2)N1c1ccc(-c2ccc(Cl)nc2)cc1 [Example 94, (3R,4R)-3-[(2R)-2-(4-chlorophenyl)-2-hydroxyethylthio]-1-[4-(6-chloropyridin-3-yl)phenyl]-4-(4-hydroxyphenyl)azetidin-2-one]",inhibition at 12.5 µM,[1],≥ 60%
same,inhibition in vivo at 0.1 mg/kg,[2]; [5],≥ 50%
"Cc1cc(O)ccc1[C@@H]1[C@@H](SC[C@H](O)c2ccc(F)cc2)C(=O)N1c1ccc(-c2cncc(C(F)(F)F)c2)cc1 [Example 99, (3R,4R)-3-[(2R)-2-(4-fluorophenyl)-2-hydroxyethylthio]-4-(4-hydroxy-2-methylphenyl)-1-[4-(5-trifluoromethylpyridin-3-yl)phenyl]azetidin-2-one]",inhibition at 12.5 µM,[1],≥ 60%
same,inhibition in vivo at 0.1 mg/kg,[2]; read-out: serum TG lowering effect (serum TG lowering rate),≥ 20%
"O=C1[C@H](CC[C@H](O)c2ccc(F)cc2)[C@@H](c2ccc(O)cc2)N1c1ccc(F)cc1 [Ezetimibe, (3R,4S)-3-[(3S)-3-(4-fluorophenyl)-3-hydroxypropyl]-1-(4-fluorophenyl)-4-(4-hydroxyphenyl)azetidin-2-one]",LDL cholesterol-lowering effect,[3],15-20%
